Assays:
Format in all cases: in vivo
[1] = test system: vetch aphid (Megoura viciae); experiment: Vetch aphid, broad bean leaf disks in 24-well microtiter plates; conditions: foliar, 120 h, sprayed leaf disks, 5 days, read-out: mortality in comparison with untreated controls
Procedure: For evaluating control of vetch aphid (Megoura viciae) through contact or systemic means the test unit consisted of 24-well-microtiter plates containing broad bean leaf disks.
The compounds were formulated using a solution containing 75% v/v water and 25% v/v DMSO. Different concentrations of formulated compounds were sprayed onto the leaf disks at 2.5 μl, using a custom built micro atomizer, at two replications.
After application, the leaf disks were air-dried and 5-8 adult aphids placed on the leaf disks inside the microtiter plate wells. The aphids were then allowed to suck on the treated leaf disks and incubated at about 23+1° C. and about 50+5% relative humidity for 5 days. Aphid mortality and fecundity was then visually assessed.

[2] = test system: Cowpea Aphid (Aphis craccivora); experiment: Cowpea aphid, spray on colonized cowpea plants; conditions: sprayed cowpea plants, after 72 hours, read-out: mortality in comparison with untreated controls
Procedure: The active compound is dissolved at the desired concentration in a mixture of 1:1 (vol:vol) distilled water: acetone. Surfactant (Kinetic® HV) is added at a rate of 0.01% (vol/vol). The test solution is prepared at the day of use.
Potted cowpea plants were colonized with approximately 30-50 aphids of various stages by manually transferring a leaf tissue cut from infested plant 24 hours before application. Plants were sprayed with the test solutions using a DeVilbiss® hand atom-izer at 20-30 psi (=1.38 to 2.07 bar) after the pest population has been checked. Treat-ed plants are maintained on light carts at about 25-26° C. Percent mortality was assessed after 72 hours.

[3] = test system: green peach aphid (Myzus persicae); experiment: Green peach aphid, systemic, artificial diet in 96-well microtiter plates; conditions: 72 h, 3 days, read-out: mortality in comparison with untreated controls
Source text: a) For evaluating control of green peach aphid (Myzus persicae) through systemic means the test unit consisted of 96-well-microtiter plates containing liquid artificial diet under an artificial membrane.
The compounds were formulated using a solution containing 75% v/v water and 25% v/v DMSO. Different concentrations of formulated compounds were pipetted into the aphid diet, using a custom built pipetter, at two replications.
After application, 5-8 adult aphids were placed on the artificial membrane inside the microtiter plate wells. The aphids were then allowed to suck on the treated aphid diet and incubated at about 23±1° C. and about 50±5% relative humidity for 3 days. Aphid mortality and fecundity was then visually assessed.

[4] = test system: Rice Brown Plant Hopper (Nilaparvata lugens); experiment: Rice brown plant hopper, sprayed rice seedlings; conditions: after 72 hours, read-out: mortality in comparison with untreated controls
Procedure: Rice seedlings were cleaned and washed 24 hours before spraying. The active compounds were formulated in 50:50 acetone:water (vol:vol) and 0.1% vol/vol surfactant (EL 620) was added. Potted rice seedlings were sprayed with 5 ml test solution, air dried, placed in cages and inoculated with 10 adults. Treated rice plants were kept at about 28-29° C. and relative humidity of about 50-60%. Percent mortality was recorded after 72 hours.

[5] = test system: Rice Green Leafhopper (Nephotettix virescens); experiment: Rice green leafhopper, sprayed rice seedlings; conditions: after 72 hours, read-out: mortality in comparison with untreated controls
Procedure: Rice seedlings were cleaned and washed 24 hours before spraying. The active compounds were formulated in 50:50 acetone:water (vol:vol), and 0.1% vol/vol surfactant (EL 620) was added. Potted rice seedlings were sprayed with 5 ml test solution, air dried, placed in cages and inoculated with 10 adults. Treated rice plants were kept at about 28-29° C. and relative humidity of about 50-60%. Percent mortality was recorded after 72 hours.

[6] = test system: Orchid Thrips (Dichromothrips corbetti); experiment: Orchid thrips, floral-immersion technique; conditions: dipped orchid flowers, 72 hours after treatment, read-out: mortality in comparison with untreated controls
Procedure: Dichromothrips corbetti adults used for bioassay were obtained from a colony maintained continuously under laboratory conditions. For testing purposes, the test compound is diluted in a 1:1 mixture of acetone:water (vol:vol), plus 0.01% vol/vol Alkamuls® EL 620 surfactant.
Thrips potency of each compound was evaluated by using a floral-immersion technique. Plastic petri dishes were used as test arenas. All petals of individual, intact orchid flowers were dipped into treatment solution and allowed to dry. Treated flowers were placed into individual petri dishes along with about 20 adult thrips. The petri dishes were then covered with lids. All test arenas were held under continuous light and a temperature of about 28° C. for duration of the assay. After 3 days, the numbers of live thrips were counted on each flower, and along inner walls of each petri dish. The percent mortality was recorded 72 hours after treatment.

[7] = test system: green peach aphid (Myzus persicae); experiment: Green peach aphid, spray on infested bell pepper plants; conditions: 120 h, sprayed bell pepper plants, after 5 days, read-out: mortality in comparison with untreated controls
Procedure: b) The active compounds were formulated by a Tecan liquid handler in 100% cyclohexa-none as a 10,000 ppm solution supplied in tubes. The 10,000 ppm solution was serially diluted in 100% cyclohexanone to make interim solutions. These served as stock solu-tions for which final dilutions were made by the Tecan in 50% acetone:50% water (v/v) into 10 or 20 ml glass vials. A nonionic surfactant (Kinetic®) was included in the solution at a volume of 0.01% (v/v).
(§1) The vials were then inserted into an automated electrostatic sprayer equipped with an atomizing nozzle for application to plants/insects.
Bell pepper plants at the first true-leaf stage were infested prior to treatment by placing heavily infested leaves from the main colony on top of the treatment plants. Aphids were allowed to transfer overnight to accomplish an infestation of 30-50 aphids per plant and the host leaves were removed. The infested plants were then sprayed by an automated electrostatic plant sprayer equipped with an atomizing spray nozzle. The plants were dried in the sprayer fume hood, removed, and then maintained in a growth room under fluorescent lighting in a 24-hr photoperiod at about 25° C. and about 20-40% relative humidity. Aphid mortality on the treated plants, relative to mortality on untreated control plants, was determined after 5 days.

[8] = test system: Cotton Aphid (Aphis gossypii); experiment: Cotton aphid, spray on infested cotton plants; conditions: 120 h, sprayed cotton plants, after 5 days, read-out: mortality in comparison with untreated controls
Procedure: The active compounds were formulated by a Tecan liquid handler in 100% cyclohexa-none as a 10,000 ppm solution supplied in tubes. The 10,000 ppm solution was serially diluted in 100% cyclohexanone to make interim solutions. These served as stock solu-tions for which final dilutions were made by the Tecan in 50% acetone:50% water (v/v) into 10 or 20 ml glass vials. A nonionic surfactant (Kinetic®) was included in the solution at a volume of 0.01% (v/v).
as §1
Cotton plants at the cotyledon stage were infested with aphids prior to treatment by placing a heavily infested leaf from the main aphid colony on top of each cotyledon. Aphids were allowed to transfer overnight to accomplish an infestation of 80-100 aphids per plant and the host leaf was removed. The infested plants were then sprayed by an automated electrostatic plant sprayer equipped with an atomizing spray nozzle. The plants were dried in the sprayer fume hood, removed from the sprayer, and then main-tained in a growth room under fluorescent lighting in a 24-hr photoperiod at 25° C. and 20-40% relative humidity. Aphid mortality on the treated plants, relative to mortality on untreated control plants, was determined after 5 days.

C[n+]1c([O-])c(-c2ccccc2)c(=O)n2c1SC(c1cnc(Cl)s1)C2 (centres unmarked) [compound 1]
> 75%: mortality at 2500 ppm [1] | mortality at 500 ppm [2] | mortality at 2500 ppm [3] | mortality at 500 ppm [4] | mortality at 500 ppm [5] | mortality at 500 ppm [6] | mortality at 2500 ppm [7] | mortality at 300 ppm [8]

Source: patent US10149477B2, “Substituted pyrimidinium compounds for combating animal pests” (BASF SE, priority 2014, dated 2018)
